We go through seven molecules from the NIST ThermoML archive (doi:10.1021/je0602519).

Numbers after ± are expanded uncertainties.

Series [1] in a line: xn = mol fraction of the nth substance listed. The following applies: 101 kPa, Liquid, x1 = 1; for speed of sound: Frequency=2 MHz, Linear variable-path acoustic interferometer; for mass density: Pycnometric method.
The conditions of series [2]: Liquid; for viscosity / mass density: 101 kPa; for mass density: Pycnometric method; for speed of sound: 101.33 kPa, Frequency=2 MHz, Linear variable-path acoustic interferometer.

A word on the speed of sound: it is the propagation velocity of pressure waves in the medium. In general, mass density refers to mass per unit of volume. What is called viscosity is the internal friction of a fluid under shear. `Cc1ccccc1` [toluene] + CCCCCCCCCCO: in series [1] (303.15 K), the speed of sound was 1289 ± 3 m/s, the mass density is 856.62 ± 0.31 kg/m3 and the viscosity stood at 0.525 ± 0.029 mPa·s. In addition, in series [1] (313.15 K), the speed of sound came to 1256 ± 2 m/s, the mass density is listed as 847.03 ± 0.32 kg/m3 and the viscosity is given as 0.471 ± 0.027 mPa·s.

Regarding `CCCCCCCCO` [octan-1-ol], in series [2] (303.15 K), the viscosity is 6.433 ± 0.26 mPa·s, the mass density came to 818.38 ± 0.29 kg/m3 and the speed of sound stood at 1334 ± 3 m/s. Also, in series [2] (313.15 K), the viscosity is reported as 4.603 ± 0.2 mPa·s, the mass density is reported as 811.05 ± 0.3 kg/m3 and the speed of sound turned out to be 1304 ± 3 m/s.

As for `Cc1ccccc1` [toluene] + CCCCCCCCO, in series [1] (303.15 K), the speed of sound stood at 1289 ± 3 m/s, the mass density is 856.62 ± 0.31 kg/m3 and the viscosity was 0.525 ± 0.029 mPa·s. Further, in series [1] (313.15 K), the speed of sound is reported as 1256 ± 2 m/s, the mass density is reported as 847.03 ± 0.32 kg/m3 and the viscosity stood at 0.471 ± 0.027 mPa·s.

In the case of `Cc1ccccc1` [toluene] + CCCCCCCO, in series [1] (303.15 K), the speed of sound was 1289 ± 3 m/s, the mass density turned out to be 856.62 ± 0.31 kg/m3 and the viscosity came out at 0.525 ± 0.029 mPa·s. Further, in series [1] (313.15 K), the speed of sound was 1256 ± 2 m/s, the mass density was found to be 847.03 ± 0.32 kg/m3 and the viscosity is 0.471 ± 0.027 mPa·s.

For the molecule `CCCCCCCO` [heptan-1-ol], in series [2] (303.15 K), the viscosity came out at 5.048 ± 0.22 mPa·s, the mass density is 814.89 ± 0.29 kg/m3 and the speed of sound stood at 1313 ± 3 m/s. In addition, in series [2] (313.15 K), the viscosity is given as 3.712 ± 0.17 mPa·s, the mass density amounted to 807.68 ± 0.3 kg/m3 and the speed of sound is reported as 1279 ± 3 m/s.

With `Cc1ccccc1` [toluene], in series [2] (303.15 K), the viscosity came to 0.525 ± 0.029 mPa·s, the mass density is reported as 856.62 ± 0.31 kg/m3 and the speed of sound is 1289 ± 3 m/s. Also, in series [2] (313.15 K), the viscosity came out at 0.471 ± 0.027 mPa·s, the mass density was 847.03 ± 0.32 kg/m3 and the speed of sound came to 1256 ± 2 m/s.

As to `CCCCCCCCCCO` [decan-1-ol], in series [2] (303.15 K), the viscosity is 9.716 ± 0.37 mPa·s, the mass density was determined as 822.87 ± 0.29 kg/m3 and the speed of sound was 1366 ± 3 m/s. In addition, in series [2] (313.15 K), the viscosity is 6.82 ± 0.28 mPa·s, the mass density was 815.97 ± 0.31 kg/m3 and the speed of sound is 1334 ± 3 m/s.
